Measured values from patent publication US20200131144A1, “AMINE OR (THIO)AMIDE CONTAINING LXR MODULATORS” (Phenex-FXR GmbH, priority 2017, published 2020).

Tests used:
[1] = molecular target: T1, LXRα full length (FL) (Homo sapiens, UniProt Q13133); assay: LXR Gal4 reporter transient transfection assay, mammalian two-hybrid, FL-M2H Gal4α; assay type: cell-based; conditions: HEK293 cells; inverse agonist unless *
T1 construct: the full length (FL) proteins of LXRα (amino acids 1-447); NP005684; expressed in transfected cells; host or cells: HEK293
T1 sequence (Q13133 1-447): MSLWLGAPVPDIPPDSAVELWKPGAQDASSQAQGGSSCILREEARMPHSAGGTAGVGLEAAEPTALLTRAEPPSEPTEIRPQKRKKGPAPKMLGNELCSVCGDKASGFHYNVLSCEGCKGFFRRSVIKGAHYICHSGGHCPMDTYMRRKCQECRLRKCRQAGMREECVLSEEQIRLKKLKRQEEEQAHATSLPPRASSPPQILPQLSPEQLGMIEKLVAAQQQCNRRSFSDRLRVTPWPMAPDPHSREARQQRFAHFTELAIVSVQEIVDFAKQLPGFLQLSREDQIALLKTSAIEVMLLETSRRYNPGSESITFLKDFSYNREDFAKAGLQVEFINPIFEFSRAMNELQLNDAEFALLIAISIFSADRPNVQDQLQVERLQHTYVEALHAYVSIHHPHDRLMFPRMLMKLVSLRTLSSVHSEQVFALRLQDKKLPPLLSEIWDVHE
Procedure, shortened: (§1)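 Mammalian two-hybrid read-out: interaction of LXRα or LXRβ (full length or ligand-binding domain, NFkB activation-domain fusions) with GAL4-fused SRC1 or NCoR domains drives GAL4-responsive firefly luciferase in HEK293 cells, normalised by Renilla cotransfection. Compounds given 4 h after transfection, ≤0.2% vehicle, cells lysed after 16 h.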

[2] = molecular target: T2, LXRβ full length (FL) (Homo sapiens, UniProt P55055, INS174Q); assay: LXR Gal4 reporter transient transfection assay, mammalian two-hybrid, FL-M2H Gal4β; assay type: cell-based; conditions: HEK293 cells; inverse agonist unless *
T2 construct: the full length (FL) proteins of LXRα (amino acids 1-447); NP005684; NP009052; expressed in transfected cells; host or cells: HEK293
T2 sequence (P55055 with tags, fused parts or gaps INS174Q): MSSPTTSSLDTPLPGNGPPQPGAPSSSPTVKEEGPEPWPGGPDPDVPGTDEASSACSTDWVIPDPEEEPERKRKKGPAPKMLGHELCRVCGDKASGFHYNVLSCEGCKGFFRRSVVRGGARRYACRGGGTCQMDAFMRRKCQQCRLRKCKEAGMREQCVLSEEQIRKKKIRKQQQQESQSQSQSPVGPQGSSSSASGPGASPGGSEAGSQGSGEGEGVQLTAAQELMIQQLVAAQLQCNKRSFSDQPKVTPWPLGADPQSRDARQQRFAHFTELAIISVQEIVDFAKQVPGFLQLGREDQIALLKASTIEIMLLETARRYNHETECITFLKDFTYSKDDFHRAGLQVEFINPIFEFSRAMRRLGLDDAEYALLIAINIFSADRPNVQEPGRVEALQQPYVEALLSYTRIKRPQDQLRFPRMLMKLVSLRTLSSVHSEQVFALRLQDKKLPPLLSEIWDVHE
Procedure, shortened: as §1

Compound | EC50 [1] | EC50 [2]
Cc1cc(C)c(C(=O)N(Cc2ccc(-c3cccc(C(C)(C)C(=O)O)c3)cc2)Cc2ccc(C(F)(F)F)o2)c(C)c1 [10/1] | < 100 nM | < 100 nM
Cc1ccc2ccccc2c1C(=O)N(Cc1ccc(-c2cccc([C@@H](C)C(=O)O)c2)cc1)Cc1ccc(C(F)(F)F)o1 [10/5] | < 100 nM | < 100 nM
Cc1ccc2ccccc2c1C(=O)N(Cc1ccc(C(F)(F)F)o1)Cc1ccc(-c2cccc(C(C)(C)C(=O)O)c2)cc1C#N [27/7] | < 100 nM | < 100 nM
Cc1ccc2ccccc2c1C(=O)N(Cc1ccc(-c2cccc(C(C)(O)C(=O)O)c2)cc1)Cc1ccc(C(F)(F)F)o1 (centres unmarked) [27/10] | < 100 nM | < 100 nM
COc1ccc2c(c1CN(Cc1ccc(-c3cccc(C(C)(C)C(=O)O)c3)cc1)Cc1ccc(C(F)(F)F)o1)CCCC2 [27/17] | < 100 nM | < 100 nM
Cc1ccc2ccccc2c1C(=O)N(Cc1ccc(-c2cccc(C(C)(C)C(=O)O)c2)cc1)Cc1ccc(C(F)(F)F)o1 [27/26] | < 100 nM | < 100 nM
CCOC(=O)c1ccc(CN(Cc2ccc(-c3cccc(C(C)(C)C(=O)O)c3)cc2)C(=O)c2c(C)ccc3ccccc23)o1 [27/28] | < 100 nM | < 100 nM
Cc1ccc2ccccc2c1C(=O)N(Cc1ccc(-c2cccc(C(C)(C)C(=O)O)c2)cc1)Cc1ccc(C(F)F)o1 [27/36] | < 100 nM | < 100 nM
Cc1ccc2ccccc2c1C(=O)N(Cc1ccc(-c2cccc(C(C)(C)C(=O)O)c2)cc1)Cc1ccc(C#N)o1 [27/38] | 100 to 1000 nM | < 100 nM
CCc1nc2ccccc2c(C(=O)N(Cc2ccc(-c3cccc(C(C)(C)C(=O)O)c3)cc2)Cc2ccc(C(F)(F)F)o2)c1C [27/43] | < 100 nM | < 100 nM
COc1ccc2c(c1C(=O)N(Cc1ccc(-c3cccc(C(C)(C)C(=O)O)c3)cc1)Cc1ccc(C(F)(F)F)o1)CCCC2 [27/45] | < 100 nM | < 100 nM
CC(C)(C(=O)O)c1cccc(-c2ccc(CN(Cc3ccc(C(F)(F)F)o3)C(=O)c3c4ccccc4cc4ccccc34)cc2)c1 [27/47] | < 100 nM | < 100 nM
COc1cc(-c2cccc(C(C)(C)C(=O)O)c2)ccc1CN(Cc1ccc(C(F)(F)F)o1)C(=O)c1c(C)ccc2ccccc12 [27/66] | < 100 nM | < 100 nM
Cc1ccc2ccccc2c1C(=O)N(Cc1ccc(-c2cc(F)cc(C3(C(=O)O)CC3)c2)cc1)Cc1ccc(C(F)(F)F)o1 [27/76] | < 100 nM | < 100 nM
Cc1ccc2ccccc2c1C(=O)N(Cc1ccc(C(F)(F)F)o1)Cc1ncc(-c2cccc(C(C)(C)C(=O)O)c2)cc1Cl [27/78] | < 100 nM | < 100 nM
Cc1nc2ccccc2c(C(=O)N(Cc2ccc(-c3cccc(C(C)(C)C(=O)O)c3)cc2)Cc2ccc(C(F)(F)F)o2)c1C [27/79] | < 100 nM | < 100 nM
COc1c(C)nc2ccccc2c1C(=O)N(Cc1ccc(-c2cccc(C(C)(C)C(=O)O)c2)cc1)Cc1ccc(C(F)(F)F)o1 [27/81] | < 100 nM | < 100 nM
Cc1nc2cccnc2c(C(=O)N(Cc2ccc(-c3cccc(C(C)(C)C(=O)O)c3)cc2)Cc2ccc(C(F)(F)F)o2)c1C [27/93] | < 100 nM | < 100 nM
Cc1ccc2ccccc2c1CN(Cc1ccc(-c2cccc(C(C)(C)C(=O)O)c2)cc1)Cc1ccc(C(F)(F)F)o1 [Example 24, 2-Methyl-2-(4′-((((2-methylnaphthalen-1-yl)methyl)((5-(trifluoromethyl)furan-2-yl)methyl)amino)methyl)-[1,1′-biphenyl]-3-yl)propanoic acid] | < 100 nM | < 100 nM
